Results on eight compounds are retold here after PubChem BioAssay (NCI).

Among the test systems are SF-295 CNS; EKVX NSCLC; SNB-75 CNS; PC-3 prostate; NCI-H460 lung; NCI/ADR-RES ovarian; K-562 leukemia; HL-60(TB) leukemia; SK-OV-3 ovarian; COLO 205 colon; CAKI-1 renal; SK-MEL-5 melanoma; OVCAR-8 ovarian; UACC-257 melanoma; OVCAR-4 ovarian; SF-268 CNS; A549 NSCLC; A498 renal; HCC-2998 colon; SF-539 CNS.
Test in all cases: NCI tumour cell line growth inhibition, 48 h

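The compound was tested at five concentrations on cells cultured in 96-well plates, with a 48-hour exposure period. TGI is the concentration that stops growth completely.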

Consider `CCC1c2[nH]c3ccccc3c2C[C@H]2C(=O)NC(CCCCNC(=O)OC(C)(C)C)C(=O)N12` (some centres not stated), for which the TGI with SF-295 CNS is 62.4 µM; in the test on EKVX NSCLC, more than 100 µM; with SNB-75 CNS, 58.2 µM; with PC-3 prostate it was 58.7 µM; with NCI-H460 lung, more than 100 µM; in the test with NCI/ADR-RES ovarian, 74.6 µM. Further, the TGI in the test with K-562 leukemia is more than 100 µM; with HL-60(TB) leukemia, 59.6 µM; with SK-OV-3 ovarian, more than 100 µM; with COLO 205 colon, 66.9 µM; with CAKI-1 renal, 70.4 µM; with SK-MEL-5 melanoma, 38.8 µM. Besides, the TGI was more than 100 µM in the test with OVCAR-8 ovarian; 66.8 µM in the test on UACC-257 melanoma; more than 100 µM in the test on OVCAR-4 ovarian; more than 100 µM with SF-268 CNS; more than 100 µM in the test with A549 NSCLC; more than 100 µM in the test on A498 renal.

Turning to `O=P(c1ccccc1)(c1ccccc1)c1ccc2c(c1)OCCOCCOCCOCCO2`, the TGI with SF-295 CNS, with EKVX NSCLC, with SNB-75 CNS, with PC-3 prostate, with HCC-2998 colon and with NCI-H460 lung was more than 100 µM each time. Besides, the TGI with K-562 leukemia, in the test on HL-60(TB) leukemia, with SK-OV-3 ovarian, with COLO 205 colon, in the test on CAKI-1 renal and with SK-MEL-5 melanoma was more than 100 µM each time. The TGI with OVCAR-8 ovarian, in the test with SF-539 CNS, in the test with SF-268 CNS, with A549 NSCLC and in the test with A498 renal was more than 100 µM throughout.

On to `c1ccc2sc(C3(N4CCC5(CC4)OCCO5)CCCCC3)cc2c1`, for which the TGI with SF-295 CNS is more than 100 µM; in the test with EKVX NSCLC it was more than 100 µM; in the test with SNB-75 CNS it was more than 100 µM; in the test with HCC-2998 colon, 90.9 µM; in the test on NCI-H460 lung it was more than 100 µM; in the test on NCI/ADR-RES ovarian it was more than 100 µM. The TGI with K-562 leukemia was more than 100 µM; in the test on HL-60(TB) leukemia it was 54.9 µM; in the test on SK-OV-3 ovarian it was more than 100 µM; with COLO 205 colon it was more than 100 µM; in the test on CAKI-1 renal it was more than 100 µM; with SK-MEL-5 melanoma, more than 100 µM. Further, the TGI in the test with OVCAR-8 ovarian, in the test with SF-539 CNS, with UACC-257 melanoma, in the test on OVCAR-4 ovarian, with SF-268 CNS and in the test with A549 NSCLC was more than 100 µM throughout. Moreover, the TGI with A498 renal was more than 100 µM.

Take `Cc1c(NC(=O)c2cc([N+](=O)[O-])cc([N+](=O)[O-])c2)c(=O)n(-c2ccccc2)n1C`: the TGI with PC-3 prostate, in the test with NCI-H460 lung, with NCI/ADR-RES ovarian, with K-562 leukemia, in the test on HL-60(TB) leukemia and with SK-OV-3 ovarian was more than 100 µM in each case. Also, the TGI was 52.2 µM in the test with COLO 205 colon; more than 100 µM with CAKI-1 renal; more than 100 µM in the test with SK-MEL-5 melanoma; more than 100 µM in the test with OVCAR-8 ovarian; more than 100 µM with SF-539 CNS; more than 100 µM in the test with UACC-257 melanoma. The TGI in the test with OVCAR-4 ovarian, in the test on SF-268 CNS, in the test with A549 NSCLC and with A498 renal was more than 100 µM throughout.

Regarding `Cc1ccc([N+](=O)[O-])cc1S(=O)(=O)Nc1ccc(C2=NN(C(=O)c3ccccc3)C(c3cccs3)C2)cc1` (configuration not stated), the TGI in the test on SF-295 CNS was more than 100 µM; with EKVX NSCLC, 67.7 µM; with SNB-75 CNS, 67 µM; in the test on PC-3 prostate, more than 100 µM; with NCI/ADR-RES ovarian it was more than 100 µM; with K-562 leukemia it was more than 100 µM. In addition, the TGI is more than 100 µM in the test with HL-60(TB) leukemia; 82.5 µM in the test on SK-OV-3 ovarian; 32.8 µM in the test with COLO 205 colon; more than 100 µM in the test with CAKI-1 renal; 32.7 µM in the test on SK-MEL-5 melanoma; more than 100 µM in the test on OVCAR-8 ovarian. The TGI in the test with SF-539 CNS is 63.9 µM; in the test with UACC-257 melanoma it was 72.9 µM; in the test with OVCAR-4 ovarian it was more than 100 µM; in the test with SF-268 CNS, more than 100 µM; in the test with A549 NSCLC, more than 100 µM; in the test on A498 renal, 50.8 µM.

As to `NCCCCN(CCCN)Cc1ccc2ccccc2c1`, the TGI is more than 100 µM with SF-295 CNS; more than 100 µM in the test with EKVX NSCLC; 22.8 µM in the test with SNB-75 CNS; 27.3 µM in the test with HCC-2998 colon; 55.2 µM in the test on NCI-H460 lung; more than 100 µM with NCI/ADR-RES ovarian. For the same compound, the TGI in the test on K-562 leukemia is more than 100 µM; in the test with HL-60(TB) leukemia, more than 100 µM; with SK-OV-3 ovarian it was more than 100 µM; with COLO 205 colon it was more than 100 µM; in the test on CAKI-1 renal it was 33 µM; in the test on SK-MEL-5 melanoma, more than 100 µM. The TGI is more than 100 µM in the test on OVCAR-8 ovarian; more than 100 µM in the test with SF-539 CNS; more than 100 µM with UACC-257 melanoma; more than 100 µM in the test with OVCAR-4 ovarian; 44 µM with SF-268 CNS; more than 100 µM in the test on A549 NSCLC. The TGI in the test with A498 renal was more than 100 µM.

On to `COc1ccccc1/C=C/c1c(N)ncnc1Nc1cccc(Cl)c1`, for which the TGI is 65 µM in the test on SF-295 CNS; more than 100 µM in the test on EKVX NSCLC; 23.6 µM in the test with SNB-75 CNS; 0.97 µM with PC-3 prostate; more than 100 µM in the test with HCC-2998 colon; 57.1 µM in the test with NCI-H460 lung. The TGI with K-562 leukemia is more than 100 µM; in the test on HL-60(TB) leukemia, 0.969 µM; with CAKI-1 renal, 58.9 µM; with SK-MEL-5 melanoma, 43.4 µM; in the test with OVCAR-8 ovarian, more than 100 µM; with SF-539 CNS, 35.6 µM. Further, the TGI worked out at 35 µM in the test with UACC-257 melanoma; 34.4 µM with OVCAR-4 ovarian; 38.8 µM in the test with SF-268 CNS; 41.6 µM in the test on A549 NSCLC; 30.9 µM in the test on A498 renal.

For the compound `COC(=O)c1cnn2c1ccc1ccccc12`, the TGI with SF-295 CNS, with EKVX NSCLC, with SNB-75 CNS, in the test with PC-3 prostate, with NCI-H460 lung and in the test with NCI/ADR-RES ovarian was more than 100 µM each time. For the same compound, the TGI in the test with K-562 leukemia, in the test with HL-60(TB) leukemia, in the test with SK-OV-3 ovarian, in the test on COLO 205 colon, in the test with CAKI-1 renal and with SK-MEL-5 melanoma was more than 100 µM each time. Moreover, the TGI in the test on OVCAR-8 ovarian, in the test on SF-539 CNS, in the test on UACC-257 melanoma, in the test with SF-268 CNS, in the test on A549 NSCLC and with A498 renal was more than 100 µM in each case.
